One assay deals with Carbonic anhydrase 2 (Homo sapiens, UniProt P00918). The assay is described as follows: Inhibition of human recombinant N-HA-tagged carbonic anhydrase 2 expressed in HEK293T cells using p-nitrophenyl acetate as substrate measured after 30 mins by colorimetric analysis.
The nature of assay [1]: Inhibition of human recombinant N-His-tagged carbonic anhydrase 11 expressed in HEK293T cells using p-nitrophenyl acetate as substrate measured after 30 mins by colorimetric analysis.

For `O=S(=O)(Oc1ccc(-c2ccc3occc3c2)cc1)c1ccc(F)cc1`, the results for the IC50 (on Carbonic anhydrase 2; in assay [1]) were 140 nM and 1600 nM, respectively.
For `CCCS(=O)(=O)Oc1ccc(-c2ccc3occc3c2)cc1`, in that order: 1620 nM and 690 nM.
As for `O=S(=O)(Oc1ccc(-c2ccc3sccc3c2)cc1)c1ccccc1`, the IC50 on Carbonic anhydrase 2 turned out to be 1490 nM; in assay [1] it was 2700 nM.
Take `Cc1ccc(S(=O)(=O)Oc2ccc(-c3ccc4sccc4c3)cc2)cc1`: the values for the IC50 (at Carbonic anhydrase 2; in assay [1]) were 3300 nM and 1770 nM, respectively.
For `NS(=O)(=O)Oc1ccc(-c2ccc3sccc3c2)cc1`, the IC50 at Carbonic anhydrase 2 was 1320 nM; in assay [1], 240 nM.
Regarding `CN(C)S(=O)(=O)Oc1ccc(-c2ccc3occc3c2)cc1`, the 50% inhibitory concentration (IC50) on Carbonic anhydrase 2 was 1230 nM; in assay [1] it was 1710 nM.
For `CNS(=O)(=O)Oc1ccc(-c2ccc3sccc3c2)cc1`, in that order: 1210 nM and 520 nM.
For `CN(C)S(=O)(=O)Oc1ccc(-c2ccc3sccc3c2)cc1`, in that order: 5820 nM and 2840 nM.
With `CS(=O)(=O)Oc1ccc(-c2ccc3sccc3c2)cc1`, the IC50 at Carbonic anhydrase 2 was determined as 1500 nM; in assay [1], 1010 nM.
For `CCS(=O)(=O)Oc1ccc(-c2ccc3sccc3c2)cc1`, in that order: 1300 nM and 140 nM.
For `CCS(=O)(=O)Oc1ccc(-c2ccc3occc3c2)cc1`, in that order: 1600 nM and 130 nM.
For `O=S(=O)(Oc1ccc(-c2ccc3occc3c2)cc1)c1ccccc1`, in that order: 410 nM and 850 nM.
In the case of `CS(=O)(=O)Oc1ccc(-c2ccc3occc3c2)cc1`, the IC50 at Carbonic anhydrase 2 amounted to 2130 nM; in assay [1] it was 2170 nM.
For `CCCS(=O)(=O)Oc1ccc(-c2ccc3sccc3c2)cc1`, in that order: 310 nM and 7550 nM.
For the compound `Cc1ccc(S(=O)(=O)Oc2ccc(-c3ccc4occc4c3)cc2)cc1`, the figures for the IC50 (at Carbonic anhydrase 2; in assay [1]) were 500 nM and 280 nM, respectively.
For `CNS(=O)(=O)Oc1ccc(-c2ccc3occc3c2)cc1`, in that order: 1040 nM and 640 nM.
`O=S(=O)(Oc1ccc(-c2ccc3sccc3c2)cc1)c1ccc(F)cc1`: the IC50 at Carbonic anhydrase 2 amounted to 2100 nM; in assay [1] it was 3100 nM.
For the compound `NS(=O)(=O)Oc1ccc(-c2ccc3occc3c2)cc1`, the IC50 on Carbonic anhydrase 2 was 2600 nM; in assay [1], 1110 nM.

A word on the IC50: it is the concentration that gives 50% inhibition.
